These results are taken from US20210130291A1, “METHODS FOR TREATING DIABETES USING VDAC1 INHIBITORS” (THE NATIONAL INSTITUTE FOR BIOTECHNOLOGY IN THE NEGEV LTD., priority 2016, published 2021).

Entries after “also recorded” stand apart in the source; their conditions may differ.

Assay [1] relates to VDAC1 expression in INS-1 cells. As to the kind of experiment: VDAC1 expression in INS-1 cells cultured at 5 or 20 mM glucose. Type of assay: cell-based, rat. The procedure: INS-1 832/13 cells (kindly donated by Dr. C. B. Newgaard, Duke University, USA) were cultured in RPMI-1640 containing 11.1 mM D-glucose and supplemented with 10% fetal bovine serum, 100 U/ml penicillin (Gibco), 100 µg/ml streptomycin (Gibco), 10 mM HEPES, 2 mM glutamine, 1 mM sodium pyruvate, and 50 µM β-mercaptoethanol (Sigma), at 37° C. in a humidified atmosphere containing 95% air and 5% CO2. For VDAC1 over-expression by VDAC1 plasmid (1 μg/ml) and VDAC2 down-regulation by and siRNA, INS1 832/13 cells were cultured to 60% confluence. To study the long-term effects (24-72 h) of high glucose (20 mM) (glucotoxicity) compared to basal glucose (5 mM), INS-1 832/13 cells were cultured with RPMI 1640 complete media (Ahmed, M., et al., 2010. Islets 2, 283-292) in the presence or absence of indicated agents and thereafter VDAC1 expression, cell viability and function was measured.
Total RNA from handpicked mouse islets, human donor islets (Diabetic and non-diabetic) or INS1 832/13 cells were extracted using RNAeasy (Qiagen, Hilden, Germany). RNA ([…]) was used for cDNA synthesis with SuperScript (Invitrogen, Carlsbad, Calif., USA). Concentration and purity of total RNA was measured with a NanoDrop ND-1000 spectrophotometer (A260/A280>1.9 and A260/A230>1.4) (NanoDrop Technologies, Wilmington, Del.) and RNA Quality Indicator (RQI) higher than 8.0 (Experion Automated Electrophoresis, Bio-Rad, USA) was considered to be high-quality total RNA preparations. A 10 μl of reaction mixture with 20 ng cDNA, 5 μl TaqMan mastermix (Applied Biosystems, Foster City, Calif., USA), and 100 nM TagMan gene expression assay were run in a 7900HT Fast Real-Time System (Applied Biosystems). The qPCR was carried out as follows: 50° C. for 2 minutes, 95° C. for 10 minutes, 40 cycles of 95° C. for 15 seconds, and 60° C. for 1 minute. The amount of mRNA was calculated relative to the amount of housekeeping genes (GAPDH, PPIA or HPRT) mRNA in the same sample by the formula X0/R0=2CtR-CtX, where X0 is the original amount of mRNA for the gene of interest, R0 is the original amount of HPRT mRNA, CtR the Ct value for HPRT, and CtX the Ct value for the gene of interest. Primer sequences are provided upon request.

The next assay relates to islets from T2D donors. As to the kind of experiment: ATP content and GSIS in islets from T2D donors, acute addition of VDAC1 inhibitors. In kind it is cell-based, human. From the text: Human pancreatic islets were obtained through collaboration between Human Tissue Laboratory within Lund University Diabetes Centre (LUDC) and the Nordic Network for Clinical Islet Transplantation (Prof. Olle Korsgren, Uppsala University, Sweden). Donors were grouped according to HbA1c i.e. less than 6% (ND), between 6% and 6.5% (IGT), higher than 6.5% or history of diabetes (T2D). The human islets (70-90% purity) had been cultured in CMRL 1066 (ICN Biomedicals, Costa Mesa, Calif.) supplemented with 10 mM HEPES, 2 mM L-glutamine, […] gentamicin, […] fungizone (Gibco, BRL, Gaithersburg, Md.), 20 μg/ml ciprofloxacin (Bayer Healthcare, Leverkusen, Germany) and 10 mM nicotinamide at 37° C. (5% CO2) for 1 to 5 days prior to the arrival in the laboratory. The islets were then hand-picked under stereomicroscope prior to use. All procedures using human islets were approved by the ethical committees at Uppsala and Lund Universities, Sweden.
(§1) Human pancreatic islets were collected under a stereomicroscope at room temperature and cultured at 5.5 or 20 mM glucose in the absence or presence of test agents for 72 h. Thereafter the islets were washed and preincubated for 30 min at 37° C. in Krebs Ringer bicarbonate buffer, pH 7.4, supplemented with N-2 hydroxyethylpiperazine-N′-2-ethanesulfonic acid (10 mM), 0.1% bovine serum albumin, and 1 mM glucose. Each incubation vial contained 12 islets in 1.0 ml KRB buffer solution and treated with 95% O2 and 5% CO2 to obtain constant pH and oxygenation. After preincubation, the buffer was changed to a medium containing either 1 mM or 16.7 mM glucose. The islets were then incubated for 1 h at 37° C. in a metabolic shaker (30 cycles per min). Immediately after incubation an aliquot of the medium was removed for analysis of insulin and the islets were incubated in acid-ethanol for insulin content determination by radioimmunoassay.
(§2) ATP release from isolated mouse or human islets or from INS-1 cells after transfection with mitochondrial targeted VDAC1 (mtVDAC1) or plasma membrane targeted VDAC1 (plVDAC1) plasmids was determined using a luminometric assay kit according to manufacturer's recommendation (Biovision). After incubation of islets (50/vial) or INS-1 cells for 60 min, an aliquot of the media was removed for subsequent measurements of released ATP. Then the islets or INS-1 cells were washed 3 times and the lysates were used for measurements of ATP and protein contents followed the protocol provided by the vendor.

Assay [2] concerns the target T1, plasma membrane targeted VDAC1 (plVDAC1) (Mus musculus, UniProt Q60932).
T1 construct: expressed in transfected cells; host or cells: INS-1 832/13 cells (rat insulinoma), transient transfection; plasmid a gift from Dr. R. Buettner
As to the kind of experiment: ATP release and ATP content of INS-1 cells transfected with plasma membrane targeted VDAC1. Type of assay: cell-based. Conditions: for ATP release: racemate and enantiomers (FIG. 9a). How it is done:
as §2
INS-1 cells were transiently transfected with a plasmid encoding plasma membrane targeted VDAC1 (pVDAC1) as described in the Material and Method section herein above and in Example 3 (see also Buettner et al 2000. PNAS 97:3201-3206). After transfection (24-32 h and 2-4 h recovery in normal culture medium, RPMI 1640 with complete supplement) the INS-1 cells were washed followed by preincubation in SAB-buffer (See Material and Method above) containing 2.8 mM glucose. The final 1 h incubation was performed in SAB-buffer containing 1 mM glucose and the VDAC1 inhibitory compounds to be tested. At the end, the cells were lysed using lysis buffer, sonicated and the lysate as well as the incubation medium were analyzed for ATP content using a commercially available kit (Biovision, K354-100). Cellular protein content was analyzed by Pierce™ BCA protein assay kit (Thermo Scientific, USA).

The next assay relates to islets of C57/BL mice. As to the kind of experiment: ATP content and GSIS in islets of control C57/BL mice. The note with it: VDAC1 antibody 10 nM. Type of assay: cell-based, mouse. The procedure:
5 weeks old db/db mice and control (C57/bl) (Janvier Laboratory, France), weighing 18-25 g, were used throughout the experiments. They were given a standard pellet diet (B&K) and tap water ad libitum. The experimental procedures were approved by the Ethics Committee for Animal Research at Lund University. Isolation of pancreatic islets was performed by retrograde injection of a collagenase solution via the bile-pancreatic duct and islets were then collected under a stereomicroscope at room temperature.
as §1, §2

Setting [3] is: plVDAC1-transfected INS-1 cells, 1 h at 1 mM glucose.

T1 sequence (Q60932 whole entry): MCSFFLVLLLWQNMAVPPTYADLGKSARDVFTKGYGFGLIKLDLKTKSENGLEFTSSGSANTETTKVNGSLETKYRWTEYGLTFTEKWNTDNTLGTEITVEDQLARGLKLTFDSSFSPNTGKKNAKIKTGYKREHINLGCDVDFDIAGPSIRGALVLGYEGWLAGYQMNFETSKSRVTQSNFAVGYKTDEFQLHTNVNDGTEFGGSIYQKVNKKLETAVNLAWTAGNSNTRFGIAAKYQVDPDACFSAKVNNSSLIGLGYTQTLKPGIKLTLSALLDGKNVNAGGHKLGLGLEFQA

Take `O=CC[C@@H](O)[C@H](O)[C@H](O)CO` [2-deoxyglucose, reference compound]: the VDAC1 expression entry in assay [1] (INS-1 cells, 2-deoxyglucose, data not shown) is reported as “increased VDAC1 expression”.
On to `O=C1CC(N2CCC(Nc3ccc(OC(F)(F)F)cc3)CC2)C(=O)N1c1ccc(Cl)cc1` (centres unmarked) [AKOS, 1-(4-Chloro-phenyl)-3-[4-(4-trifluoromethoxy-phenylamino)-piperidin-1-yl]-pyrrolidine-2,5-dione], for which the GSIS result in the assay on islets from T2D donors (T2D islets, acute addition 1 h (FIG. 6f)) is given as “increased in parallel with the improved ATP generation”; with islets of C57/BL mice (others 20 μM (FIG. 7e)) it was “do not affect”. For the same compound, in the assay on islets from T2D donors (islets from 5 T2D donors and one IGT donor, 1 h, at 1 and 16.7 mM glucose (FIG. 6e)), the “islet ATP content” value is recorded as “increased islet ATP content”. Moreover, the “ATP release (loss of cellular ATP)” value in assay [2] (plVDAC1-transfected INS-1 cells, 1 h at 1 mM glucose, VDAC1-ab 10 nM, metformin, AKOS, VBIT-4 20 μM each (FIG. 4c)) is listed as “prevented; also recorded: rapidly inhibited”. The ATP content entry with islets of C57/BL mice (others 20 μM (FIG. 7d)) is listed as “do not affect”. Moreover, the “glucose evoked VDAC1 upregulation (total VDAC1 expression)” value in assay [1] (INS-1 cells cultured 72 h at 20 mM glucose, VDAC1ab 10 nM, metformin, AKOS, VBIT-4 20 μM each (FIG. 4l, 4m)) is “abrogated the glucose evoked VDAC1 upregulation”.
Consider `CC1(C)C(=O)N([C@H]2CCc3c(O)cccc32)c2nc(Nc3cccc(CN4CCCC4)c3)ncc21` [MRT199665, reference compound], for which, in assay [2] (plVDAC1 transfected INS-1 cells, MRT199665 5 μM with metformin (FIG. 4i)), the “effect of AMPK inhibitor on metformin-inhibited ATP release” value is listed as “neither attenuated”.
On to `O=C(CC(CO)N1CCN(c2ccc(OC(F)(F)F)cc2)CC1)Nc1ccc(Cl)cc1` (centres unmarked) [VBIT-4-1], for which the ATP release entry in assay [2] (setting [3]) is “efficiently inhibit ATP release”. In addition, the “cellular ATP content” value in assay [2] (plVDAC1-transfected INS-1 cells, 1 h at 1 mM glucose, racemate and enantiomers (FIG. 9b)) was “increase cellular ATP content”.
`O=C(CC(CO)N1CCN(c2ccc(OC(F)(F)F)cc2)CC1)Nc1ccc(Cl)cc1` (centres unmarked) [VBIT-4-2]: the ATP release result in assay [2] (setting [3]) is “efficiently inhibit ATP release”.
